# Measured values reported in US11390609B2, “Rho-associated protein kinase inhibitor, pharmaceutical composition comprising same, and preparation method and use thereof” (BEIJING TIDE PHARMACEUTICAL CO., LTD., priority 2017, dated 2022).
# pIC50: −log10 of the molar value.
# Columns and labels:
# ROCK2 = ROCK2 (Homo sapiens, UniProt O75116); experiment: ROCK2 kinase IC50 assay (CISBIO HTRF KinEASE-STK S2 kit); type: biochemical; conditions: incubated at room temperature for 2 hours
# Procedure: The kinase IC50 was determined by a commercialized CISBIO kinase detection kit, HTRF KinEASE-STK S2 kit (62ST2PEC). ROCK2 (01-119) employed in the reaction was purchased from Carna Biosciences.
# Before the assay, the following working solutions as needed were formulated with corresponding reagents according to the instruction of the kinase detection kit: 1×kinase buffer, 5×STK-52 substrate working solution (1.5 μM) and 5×ATP working solution (1.5 μM), 5×ROCK2 kinase working solution, 4×Streptavidin-XL665 working solution, and 4×STK-Ab-Cryptate 2 detection solution. Then the assay was performed according to the following procedure.
# A solution of a compound at a concentration of 10000 nM was prepared with the 1×kinase buffer containing 2.5% DMSO. Gradient dilution of the solution of the compound was performed with the kinase buffer containing DMSO, so as to obtain solutions of a test compound at 9 different concentrations. In addition to wells of test compounds, a positive well (containing all the reagents except the compound) and a negative well (containing all the reagents except the test compound and kinase) were set. Except for the control wells (positive and negative wells), a solution of a test compound (4 μL) was added to each of the reaction wells, and a solution of 2.5% DMSO was added to the control wells. Then the substrate ([…], 2 μL. 5×STK-S2 substrate working solution) was added to each of the reaction wells. The 5×ROCK2 kinase working solution (2 μL, containing 1.4 ng ROCK2 kinase) was added to each of the reaction wells except for the negative well, the volume of which was made up with the 1×kinase buffer (2 μL). The 5×ATP working solution (2 μL) was added to each of the reaction wells, and the mixtures were incubated at room temperature for 2 hours. After the kinase reaction was complete, the 4×Streptavidin-XL665 working solution was added to each of the reaction wells, the solutions were mixed, followed by immediate addition of the 4×STK-Ab-Cryptate 2 detection solution (5 μL), and the mixtures were incubated at room temperature for 1 hour. The fluorescence signal was read on ENVISION (Perkinelmer) (excitation wavelength: 320 nm, and emission wavelength: 665 nm and 615 nm). The inhibitory rate in each well was calculated based on the fluorescence intensity value: ER (Emission Ratio)=(fluorescence intensity at 665 nm/fluorescence intensity at 615 nm); inhibitory rate=(ERpositive−ERtest compound)/(ERpositive−ERnegative)*100%. Curves were plotted and fitted to obtain the median inhibitory concentration (IC50) of each teat compound with the PRISM 5.0 software.
# ROCK1 = ROCK1 (Homo sapiens (Human), UniProt Q13464); experiment: ROCK1 kinase IC50 assay (biological test method similar to the ROCK2 assay); type: biochemical
# In short: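 Compound dilution series (9 concentrations, top solution 10000 nM, DMSO-containing buffer) incubated 2 h at room temperature with kinase, STK-S2 substrate and ATP (5× working solutions of 1.5 µM each). Phosphorylation detected by HTRF (665/615 nm emission ratio) after 1 h; inhibition relative to full-reaction and kinase-free wells, fitted for IC50.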
# Sequence of ROCK1 (Q13464 whole entry, species assumed): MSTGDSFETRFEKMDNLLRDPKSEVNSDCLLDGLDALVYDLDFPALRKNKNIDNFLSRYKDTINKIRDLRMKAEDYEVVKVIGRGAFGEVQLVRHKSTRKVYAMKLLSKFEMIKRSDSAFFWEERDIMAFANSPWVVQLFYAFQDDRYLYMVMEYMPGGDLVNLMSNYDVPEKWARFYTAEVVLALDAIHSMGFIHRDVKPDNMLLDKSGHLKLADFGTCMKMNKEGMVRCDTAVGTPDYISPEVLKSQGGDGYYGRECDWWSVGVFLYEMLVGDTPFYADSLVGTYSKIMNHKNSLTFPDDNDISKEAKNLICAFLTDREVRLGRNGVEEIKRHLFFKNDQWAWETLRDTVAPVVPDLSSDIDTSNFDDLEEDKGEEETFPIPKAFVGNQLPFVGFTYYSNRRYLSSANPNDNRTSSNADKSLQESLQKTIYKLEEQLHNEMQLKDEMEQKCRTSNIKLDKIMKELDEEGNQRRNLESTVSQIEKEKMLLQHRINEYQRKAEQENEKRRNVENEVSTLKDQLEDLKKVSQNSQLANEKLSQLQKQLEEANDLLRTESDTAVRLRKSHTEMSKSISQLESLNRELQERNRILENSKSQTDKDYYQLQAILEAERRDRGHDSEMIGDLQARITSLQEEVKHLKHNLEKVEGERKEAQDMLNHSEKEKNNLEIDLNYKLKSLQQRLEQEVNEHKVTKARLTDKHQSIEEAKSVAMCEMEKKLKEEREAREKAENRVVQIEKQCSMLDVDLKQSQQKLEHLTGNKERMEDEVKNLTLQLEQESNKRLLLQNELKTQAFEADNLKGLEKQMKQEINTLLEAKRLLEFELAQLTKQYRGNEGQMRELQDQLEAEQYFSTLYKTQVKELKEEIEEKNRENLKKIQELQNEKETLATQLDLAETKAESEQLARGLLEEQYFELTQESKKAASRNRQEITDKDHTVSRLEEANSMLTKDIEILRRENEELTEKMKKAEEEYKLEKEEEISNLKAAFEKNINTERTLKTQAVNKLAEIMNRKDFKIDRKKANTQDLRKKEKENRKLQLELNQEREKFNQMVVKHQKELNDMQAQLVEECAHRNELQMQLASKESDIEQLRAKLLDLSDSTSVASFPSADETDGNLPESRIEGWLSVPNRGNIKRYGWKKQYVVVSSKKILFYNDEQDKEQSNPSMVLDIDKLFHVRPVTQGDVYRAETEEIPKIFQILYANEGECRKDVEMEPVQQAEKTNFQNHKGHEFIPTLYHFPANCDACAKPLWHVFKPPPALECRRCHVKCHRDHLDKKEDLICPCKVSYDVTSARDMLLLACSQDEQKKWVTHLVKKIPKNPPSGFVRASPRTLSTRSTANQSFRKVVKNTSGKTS
SMILES,pIC50 (ROCK2),pIC50 (ROCK1)
"CN(C(=O)c1cc2ccc(-c3nccc(Nc4ccc(-c5cn[nH]c5)cc4)n3)cc2[nH]1)C1CCOC1 (stereo not drawn) [TDI01419, 6-(4-((4-(1H-pyrazol-4-yl)phenyl)amino)pyrimidin-2-yl)-N-methyl-N-(tetrahydrofuran-3-yl)-1H-indole-2-carboxamide]",6.41,< 5.00
"CN(CC(F)(F)F)C(=O)c1cc2ccc(-c3nccc(Nc4ccc(-c5cn[nH]c5)cc4)n3)cc2s1 [TDI01428, 6-(4-((4-(1H-pyrazol-4-yl)phenyl)-amino)-pyrimidin-2-yl)-N-methyl-N-(2,2,2-trifluoroethyl)-benzo[b]-thiophene-2-carboxamide]",7.16,< 5.00
"CN(CC(F)(F)F)C(=O)c1cc2cc(-c3nccc(Nc4ccc(-c5cn[nH]c5)cc4)n3)ccc2[nH]1 [TDI01429, 5-(4-((4-(1H-pyrazol-4-yl)phenyl)amino)pyrimidin-2-yl)-N-methyl-N-(2,2,2-trifluoroethyl)-1H-indole-2-carboxamide]",7.00,< 5.00
"CC1COCCN1C(=O)c1cc2ccc(-c3nccc(Nc4ccc(-c5cn[nH]c5)cc4)n3)cc2[nH]1 (stereo not drawn) [TDI01431, (6-(4-((4-(1H-pyrazol-4-yl)phenyl)amino)pyrimidin-2-yl)-1H-indol-2-yl)(3-methylmorpholino) methanone]",6.69,5.36
"O=C(c1cc2ccc(-c3nccc(Nc4ccc(-c5cn[nH]c5)cc4)n3)cc2[nH]1)N1CC(O)C1 [TDI01437, (6-(4-((4-(1H-pyrazol-4-yl)phenyl)amino)pyrimidin-2-yl)-1H-indol-2-yl)(3-hydroxyazetidin-1-yl)methanone]",6.61,< 5.00
"O=C(c1cc2ccc(-c3nccc(Nc4ccc(-c5cn[nH]c5)cc4)n3)cc2[nH]1)N1CC[C@H](O)C1 [TDI01438, (S)-(6-(4-((4-(1H-pyrazol-4-yl)phenyl)amino)pyrimidin-2-yl)-1H-indol-2-yl)(3-hydroxypyrrolidin-1-yl)methanone]",6.40,< 5.00
"CC(C)NC(=O)c1cc2ccc(-c3nc(Nc4ccc(-c5cn[nH]c5)cc4)c4sccc4n3)cc2s1 [TDI01439, 6-(4-((4-(1H-pyrazol-4-yl)phenyl)-amino)thieno-[3,2-d]pyrimidin-2-yl)-N-isopropyl-benzo-[b]thiophene-2-carboxamide]",6.69,< 5.00
"CC1(F)CN(C(=O)c2cc3ccc(-c4nccc(Nc5ccc(-c6cn[nH]c6)cc5)n4)cc3[nH]2)C1 [TDI01441, (6-(4-((4-(1H-pyrazol-4-yl)phenyl)amino)pyrimidin-2-yl)-1H-indol-2-yl)(3-fluoro-3-methylazetidin-1-yl)methanone]",6.74,5.22
"O=C(c1cc2ccc(-c3nccc(Nc4ccc(-c5cn[nH]c5)cc4)n3)cc2[nH]1)N1CCC(C(F)(F)F)C1 (stereo not drawn) [TDI01444, (6-(4-((4-(1H-pyrazol-4-yl)phenyl)amino)pyrimidin-2-yl)-1H-indol-2-yl)(3-(trifluoromethyl)pyrrolidin-1-yl)methanone]",7.49,5.08
"N#CC1CCN(C(=O)c2cc3ccc(-c4nccc(Nc5ccc(-c6cn[nH]c6)cc5)n4)cc3[nH]2)CC1 [TDI01445, 1-(6-(4-((4-(1H-pyrazol-4-yl)phenyl)amino)pyrimidin-2-yl)-1H-indole-2-carbonyl)piperidine-4-carbonitrile]",7.19,5.52
"N#CC1CCN(C(=O)c2cc3ccc(-c4nccc(Nc5ccc(-c6cn[nH]c6)cc5)n4)cc3[nH]2)C1 (stereo not drawn) [TDI01448, 1-(6-(4-((4-(1H-pyrazol-4-yl)phenyl)amino)pyrimidin-2-yl)-1H-indole-2-carbonyl)pyrrolidine-3-carbonitrile]",7.89,5.52
"O=C(c1cc2ccc(-c3nc(Nc4ccc(-c5cn[nH]c5)cc4)c4sccc4n3)cc2[nH]1)N1CCOCC1 [TDI01450, (6-(4-((4-(1H-pyrazol-4-yl)phenyl)amino)thieno [3,2-d]pyrimidin-2-yl)-1H-indol-2-yl)(morpholino)methanone]",6.34,< 5.00

# Continued, values first:
pIC50 (ROCK2),pIC50 (ROCK1),SMILES
7.54,< 5.00,"O=C(c1cc2ccc(-c3nccc(Nc4ccc(-c5cn[nH]c5)cc4)n3)cc2[nH]1)N1CC(F)C1 [TDI01455, (6-(4-((4-(1H-pyrazol-4-yl)phenyl)amino)pyrimidin-2-yl)-1H-indol-2-yl)(3-fluoroazetidin-1-yl)methanone]"
7.82,< 5.00,"O=C(NCC(F)(F)F)c1cc2ccc(-c3nccc(Nc4ccc(-c5cn[nH]c5)cc4)n3)cc2s1 [TDI01456, 6-(4-((4-(1H-pyrazol-4-yl)phenyl)-amino)-pyrimidin-2-yl)-N-(2,2,2-trifluoroethyl)-benzo[b]-thiophene-2-carboxamide]"
6.40,5.31,"CC(NC(=O)c1cc2ccc(-c3nccc(Nc4ccc(-c5cn[nH]c5)cc4)n3)cc2n1C)C(F)(F)F (stereo not drawn) [TDI01457, 6-(4-((4-(1H-pyrazol-4-yl)phenyl)amino)pyrimidin-2-yl)-1-methyl-N-(1,1,1-trifluoropropan-2-yl)-1H-indole-2-carboxamide]"
6.85,5.34,"CC1(C#N)CN(C(=O)c2cc3ccc(-c4nccc(Nc5ccc(-c6cn[nH]c6)cc5)n4)cc3[nH]2)C1 [TDI01461, 1-(6-(4-((4-(1H-pyrazol-4-yl)phenyl)amino)pyrimidin-2-yl)-1H-indole-2-carbonyl)-3-methylazetidine-3-carbonitrile]"
7.96,< 5.00,"O=C(c1cc2ccc(-c3nccc(Nc4ccc(-c5cn[nH]c5)cc4)n3)cc2[nH]1)N1CCC(F)(F)C1 [TDI01463, (6-(4-((4-(1H-pyrazol-4-yl)phenyl)amino)pyrimidin-2-yl)-1H-indol-2-yl)(3,3-difluoropyrrolidin-1-yl)methanone]"
6.76,5.64,"O=C(c1cc2ccc(-c3nccc(Nc4ccc(-c5cn[nH]c5)cc4)n3)cc2[nH]1)N1CCC2(CCN2)CC1 [TDI01464, (6-(4-((4-(1H-pyrazol-4-yl)phenyl)amino)pyrimidin-2-yl)-1H-indol-2-yl)(1,7-diazaspiro[3.5]nonan-7-yl)methanone]"
6.40,< 5.00,"CS(=O)(=O)C1CN(C(=O)c2cc3ccc(-c4nccc(Nc5ccc(-c6cn[nH]c6)cc5)n4)cc3[nH]2)C1 [TDI01465, (6-(4-((4-(1H-pyrazol-4-yl)phenyl)amino)pyrimidin-2-yl)-1H-indol-2-yl)(3-(methylsulfonyl)azetidin-l-yl)methanone]"
6.76,< 5.00,"O=C(c1cc2ccc(-c3nc(Nc4ccc(-c5cn[nH]c5)cc4)c4sccc4n3)cc2[nH]1)N1CC(F)(F)C1 [TDI01472, (6-(4-((4-(1H-pyrazol-4-yl)phenyl)amino)thieno [3,2-d]pyrimidin-2-yl)-1H-indol-2-yl)(3,3-difluoroazetidin-1-yl)methanone]"
7.74,6.23,"O=C(c1cc2ccc(-c3nccc(Nc4ccc(-c5cn[nH]c5)cc4)n3)cc2[nH]1)N1CCC(F)C1 (stereo not drawn) [TDI01473, (6-(4-((4-(1H-pyrazol-4-yl)phenyl)amino)pyrimidin-2-yl)-1H-indol-2-yl)(3-fluoropyrrolidin-1-yl)methanone]"
7.33,5.95,"O=C(c1cc2ccc(-c3nccc(Nc4ccc(-c5cn[nH]c5)cc4)n3)cc2[nH]1)N1C[C@@H](F)[C@@H](F)C1 [TDI01477, (6-(4-((4-(1H-pyrazol-4-yl)phenyl)amino)pyrimidin-2-yl)-1H-indol-2-yl)((3S,4R)-3,4-difluoropyrrolidin-1-yl)methanone]"
6.56,5.40,"O=C(c1cc2ccc(-c3nccc(Nc4ccc(-c5cn[nH]c5)cc4)n3)cc2[nH]1)N1CCC(F)(F)CC1 [TDI01485, (6-(4-((4-(1H-pyrazol-4-yl)phenyl)amino)pyrimidin-2-yl)-1H-indol-2-yl)(4,4-difluoropiperidin-1-yl)methanone]"
6.73,5.52,"O=C(c1cc2ccc(-c3nccc(Nc4ccc(-c5cn[nH]c5)cc4)n3)cc2[nH]1)N1CCC2(C1)CC2(F)F (stereo not drawn) [TDI01486, (6-(4-((4-(1H-pyrazol-4-yl)phenyl)amino)pyrimidin-2-yl)-1H-indol-2-yl)(1,1-difluoro-5-azaspiro[2.4]heptan-5-yl)methanone]"
